4 compounds from patent US10604554B2, “Double-acylated GLP-1 derivatives” (Novo Nordisk A/S, priority 2012, dated 2020) can be followed below.

Assay [1] has as its target T1, human GLP-1 receptor (Homo sapiens, UniProt P43220).
T1 construct: expressed in transfected cells; host or cells: BHK cells, clone FCW467-12A/KZ10-1 (parent line BHKTS13), further transfected with CRE luciferase
The assay is described as follows: In vitro potency (CRE luciferase; whole cells). Further details: EC50/pM (ratio 1% HSA/0% HSA): unit not given here. The conditions noted are these: for EC50: BHK cells; for EC50/pM (ratio 1% HSA/0% HSA): ratio of EC50 at 1% HSA to EC50 at 0% HSA. It counts as cell-based. In a few lines:
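Reporter: CRE-luciferase in BHK cells stably expressing human GLP-1R, 5×10^3 cells/well; compounds tested in buffer containing 0% or 1% HSA.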

For assay [2], the target named is T1, human GLP-1 receptor. The assay is described as follows: GLP-1 receptor binding (SPA, displacement of 125I-GLP-1). As to conditions: for IC50 (high HSA): heading: Receptor binding affinity IC50. In a few lines:
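Tracer [125I]-GLP-1(7-36)NH2 at 0.06 nM final competed on hamster stably transfected cell membranes captured by WGA SPA beads; 120 min, 30 °C, scintillation count.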
(Displacement assays read how much labelled ligand stays bound in the presence of the test substance.)

Setting [3] is: 0% HSA, read-out: In vitro potency (CRE luciferase) EC50 (0% HSA).
The mark [4] stands for this setting: In vitro potency (CRE luciferase) EC50 (1% HSA), 1% HSA.
Setting [5] is: 0.001% HSA (low albumin), read-out: Receptor binding affinity IC50 (low HSA).
Where [6] appears, read: Receptor binding affinity IC50 (high HSA), 2.0% HSA (high albumin).
Where [7] appears, read: Receptor binding affinity IC50 (low HSA), 0.001% HSA (low albumin).

Where two headings read alike, the source gives them in different places. Numbered stars: 1 amine (or outer) side, 2 acyl side, 3 side chain; on linkers, the order of the positions; unused ones are H or OH. Square brackets hold non-standard residues; d marks the D form. Side chains are listed from the residue outwards. Peptide text beside a SMILES is read from it. * marks the point of attachment. C18 diacid = O=C(O)CCCCCCCCCCCCCCCCC(=O)*; γGlu = O=C(O)[C@H](CCC(=O)[*:2])N[*:1]; εLys = N[C@@H](CCCCN[*:1])C(=O)[*:2]; AEEA = NCCOCCOCC(=O)O; Aib = CC(C)(N)C(=O)O Some results are limits rather than exact numbers.

T1 sequence (P43220 24-463): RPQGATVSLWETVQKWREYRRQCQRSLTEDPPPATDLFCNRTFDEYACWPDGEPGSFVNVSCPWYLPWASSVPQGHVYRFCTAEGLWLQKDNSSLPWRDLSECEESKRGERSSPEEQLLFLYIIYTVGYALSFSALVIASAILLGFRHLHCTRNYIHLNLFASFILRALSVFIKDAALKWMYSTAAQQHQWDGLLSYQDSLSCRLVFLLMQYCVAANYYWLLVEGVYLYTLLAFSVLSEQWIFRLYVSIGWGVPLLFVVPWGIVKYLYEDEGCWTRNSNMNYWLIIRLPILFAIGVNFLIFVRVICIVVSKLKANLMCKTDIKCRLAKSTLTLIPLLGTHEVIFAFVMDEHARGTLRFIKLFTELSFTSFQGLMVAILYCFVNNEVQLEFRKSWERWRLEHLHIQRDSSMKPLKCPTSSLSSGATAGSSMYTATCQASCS

What is called EC50 is the concentration at which the effect is half-maximal. One may read the IC50 as the point on the concentration scale where inhibition reaches its midpoint. As to `CC[C@H](C)[C@H](NC(=O)[C@H](Cc1ccccc1)NC(=O)[C@H](CCC(=O)O)NC(=O)[C@H](CCCCNC(=O)[C@@H](N)CCCCNC(=O)COCCOCCNC(=O)COCCOCCNC(=O)CC[C@H](NC(=O)CCCCCCCCCCCCCCCCC(=O)O)C(=O)O)NC(=O)[C@H](C)NC(=O)[C@H](C)NC(=O)[C@H](CCC(N)=O)NC(=O)[C@H](CCC(=O)O)NC(=O)[C@H](CCC(=O)O)NC(=O)[C@H](CC(C)C)NC(=O)[C@H](Cc1ccc(O)cc1)NC(=O)[C@H](CO)NC(=O)[C@H](CO)NC(=O)[C@@H](NC(=O)[C@H](CC(=O)O)NC(=O)[C@H](CO)NC(=O)[C@@H](NC(=O)[C@H](Cc1ccccc1)NC(=O)[C@@H](NC(=O)CNC(=O)[C@H](CCC(=O)O)NC(=O)C(C)(C)NC(=O)[C@@H](N)Cc1c[nH]cn1)[C@@H](C)O)[C@@H](C)O)C(C)C)C(=O)N[C@@H](C)C(=O)N[C@@H](Cc1c[nH]c2ccccc12)C(=O)N[C@@H](CC(C)C)C(=O)N[C@H](C(=O)N[C@@H](CCC(N)=O)C(=O)NCC(=O)N[C@@H](CCCNC(=N)N)C(=O)N[C@@H](CCCCNC(=O)[C@@H](N)CCCCNC(=O)COCCOCCNC(=O)COCCOCCNC(=O)CC[C@H](NC(=O)CCCCCCCCCCCCCCCCC(=O)O)C(=O)O)C(=O)O)C(C)C` [Example 28, N^ε26-[(2S)-2-amino-6-[[2-[2-[2-[[2-[2-[2-[[(4S)-4-carboxy-4-(17-carboxyheptadecanoylamino)butanoyl]amino]ethoxy]ethoxy]acetyl]amino]ethoxy]ethoxy]acetyl]amino]hexanoyl], N^ε37-[(2S)-2-amino-6-[[2-[2-[2-[[2-[2-[2-[[(4S)-4-carboxy-4-(17-carboxyheptadecanoylamino)butanoyl]amino]ethoxy]ethoxy]acetyl]amino]ethoxy]ethoxy]acetyl]amino]hexanoyl]-[Aib^8,Glu^22,Gln^34, Lys^37]-GLP-1-(7-37)-peptide] (H-H[Aib]EGTFTSDVSSYLEEQAAK([εLys-AEEA-AEEA-γGlu-C18 diacid])EFIAWLVQGRK([εLys-AEEA-AEEA-γGlu-C18 diacid])-OH; N-terminus and C-terminus assumed), the EC50 at human GLP-1 receptor [1] (setting [3]) was found to be 0.017 nM; on human GLP-1 receptor [1] (setting [4]), 5.73 nM. Besides, on human GLP-1 receptor [1], the “EC50/pM (ratio 1% HSA/0% HSA)” value turned out to be 329. For the same compound, on human GLP-1 receptor [2] (setting [5]), the IC50 is 1.67 nM. This compound showed an IC50 (high HSA) on human GLP-1 receptor [2] (setting [6]) of no less than 1000 nM.

In the case of `CC[C@H](C)[C@H](NC(=O)[C@H](Cc1ccccc1)NC(=O)[C@H](CCC(=O)O)NC(=O)[C@H](CCCCNC(=O)[C@@H](N)CCCCNC(=O)[C@@H](N)CCCCNC(=O)CC[C@H](NC(=O)CCCCCCCCCCCCCCCCC(=O)O)C(=O)O)NC(=O)[C@H](C)NC(=O)[C@H](C)NC(=O)[C@H](CCC(N)=O)NC(=O)CNC(=O)[C@H](CCC(=O)O)NC(=O)[C@H](CC(C)C)NC(=O)[C@H](Cc1ccc(O)cc1)NC(=O)[C@H](CO)NC(=O)[C@H](CO)NC(=O)[C@@H](NC(=O)[C@H](CC(=O)O)NC(=O)[C@H](CO)NC(=O)[C@@H](NC(=O)[C@H](Cc1ccccc1)NC(=O)[C@@H](NC(=O)CNC(=O)[C@H](CCC(=O)O)NC(=O)C(C)(C)NC(=O)[C@@H](N)Cc1c[nH]cn1)[C@@H](C)O)[C@@H](C)O)C(C)C)C(=O)N[C@@H](C)C(=O)N[C@@H](Cc1c[nH]c2ccccc12)C(=O)N[C@@H](CC(C)C)C(=O)N[C@H](C(=O)N[C@@H](CCCNC(=N)N)C(=O)NCC(=O)N[C@@H](CCCNC(=N)N)C(=O)N[C@@H](CCCCNC(=O)[C@@H](N)CCCCNC(=O)[C@@H](N)CCCCNC(=O)CC[C@H](NC(=O)CCCCCCCCCCCCCCCCC(=O)O)C(=O)O)C(=O)O)C(C)C` [Example 27, N^ε26-[(2S)-2-amino-6-[[(2S)-2-amino-6-[[(4S)-4-carboxy-4-(17-carboxyheptadecanoylamino)butanoyl]amino]hexanoyl]amino]hexanoyl], N^ε37-[(2S)-2-amino-6-[[(2S)-2-amino-6-[[(4S)-4-carboxy-4-(17-carboxyheptadecanoylamino)butanoyl]amino]hexanoyl]amino]hexanoyl]-[Aib^8,Arg^34,Lys^37]-GLP-1-(7-37)-peptide], the 50% effective concentration (EC50) amounted to 0.022 nM on human GLP-1 receptor [1] (setting [3]) and 6.19 nM on human GLP-1 receptor [1] (setting [4]). Besides, on human GLP-1 receptor [1], the “EC50/pM (ratio 1% HSA/0% HSA)” value was 276. In addition, at human GLP-1 receptor [2] (setting [5]), the 50% inhibitory concentration (IC50) came out at 0.25 nM. The IC50 (high HSA) on human GLP-1 receptor [2] (setting [6]) was 689 nM.

Consider `CC[C@H](C)[C@H](NC(=O)[C@H](Cc1ccccc1)NC(=O)[C@H](CCC(=O)O)NC(=O)[C@H](CCCCNC(=O)[C@@H](N)CCCCNC(=O)COCCOCCNC(=O)CC[C@H](NC(=O)CC[C@H](NC(=O)CCCCCCCCCCCOc1ccc(C(=O)O)cc1)C(=O)O)C(=O)O)NC(=O)[C@H](C)NC(=O)[C@H](C)NC(=O)[C@H](CCC(N)=O)NC(=O)CNC(=O)[C@H](CCC(=O)O)NC(=O)[C@H](CC(C)C)NC(=O)[C@H](Cc1ccc(O)cc1)NC(=O)[C@H](CO)NC(=O)[C@H](CO)NC(=O)[C@@H](NC(=O)[C@H](CC(=O)O)NC(=O)[C@H](CO)NC(=O)[C@@H](NC(=O)[C@H](Cc1ccccc1)NC(=O)[C@@H](NC(=O)CNC(=O)[C@H](CCC(=O)O)NC(=O)C(C)(C)NC(=O)[C@@H](N)Cc1c[nH]cn1)[C@@H](C)O)[C@@H](C)O)C(C)C)C(=O)N[C@@H](C)C(=O)N[C@@H](Cc1c[nH]c2ccccc12)C(=O)N[C@@H](CC(C)C)C(=O)N[C@H](C(=O)N[C@@H](CCCNC(=N)N)C(=O)NCC(=O)N[C@@H](CCCNC(=N)N)C(=O)N[C@@H](CCCCNC(=O)[C@@H](N)CCCCNC(=O)COCCOCCNC(=O)CC[C@H](NC(=O)CC[C@H](NC(=O)CCCCCCCCCCCOc1ccc(C(=O)O)cc1)C(=O)O)C(=O)O)C(=O)O)C(C)C` [Example 15, N^ε26-[(2S)-2-amino-6-[[2-[2-[2-[[(4S)-4-carboxy-4-[[(4S)-4-carboxy-4-[12-(4-carboxyphenoxy)dodecanoylamino]butanoyl]amino]butanoyl]amino]ethoxy]ethoxy]acetyl]amino]hexanoyl], N^ε37-[(2S)-2-amino-6-[[2-[2-[2-[[(4S)-4-carboxy-4-[[(4S)-4-carboxy-4-[12-(4-carboxyphenoxy)dodecanoylamino]butanoyl]amino]butanoyl]amino]ethoxy]ethoxy]acetyl]amino]hexanoyl]-[Aib^8,Arg^34,Lys^37]-GLP-1-(7-37)-peptide], for which the half-maximal effective concentration (EC50) was determined as 0.0037 nM on human GLP-1 receptor [1] (In vitro potency (CRE luciferase) EC50 (0% HSA), 0% HSA) and 0.327 nM on human GLP-1 receptor [1] (setting [4]). Besides, the “EC50/pM (ratio 1% HSA/0% HSA)” value on human GLP-1 receptor [1] was found to be 93. Moreover, the IC50 was determined as 303 nM at human GLP-1 receptor [2] (setting [6]) and 0.35 nM at human GLP-1 receptor [2] (setting [7]).

`CC[C@H](C)[C@H](NC(=O)[C@H](Cc1ccccc1)NC(=O)[C@H](CCC(=O)O)NC(=O)[C@H](CCCCNC(=O)[C@@H](N)CCCCNC(=O)[C@@H](N)CCCCNC(=O)CC[C@H](NC(=O)CCCCCCCNC(=O)CCCCCCCCCOc1ccc(C(=O)O)cc1)C(=O)O)NC(=O)[C@H](C)NC(=O)[C@H](C)NC(=O)[C@H](CCC(N)=O)NC(=O)CNC(=O)[C@H](CCC(=O)O)NC(=O)[C@H](CC(C)C)NC(=O)[C@H](Cc1ccc(O)cc1)NC(=O)[C@H](CO)NC(=O)[C@H](CO)NC(=O)[C@@H](NC(=O)[C@H](CC(=O)O)NC(=O)[C@H](CO)NC(=O)[C@@H](NC(=O)[C@H](Cc1ccccc1)NC(=O)[C@@H](NC(=O)CNC(=O)[C@H](CCC(=O)O)NC(=O)C(C)(C)NC(=O)[C@@H](N)Cc1c[nH]cn1)[C@@H](C)O)[C@@H](C)O)C(C)C)C(=O)N[C@@H](C)C(=O)N[C@@H](Cc1c[nH]c2ccccc12)C(=O)N[C@@H](CC(C)C)C(=O)N[C@H](C(=O)N[C@@H](CCCNC(=N)N)C(=O)NCC(=O)N[C@@H](CCCNC(=N)N)C(=O)N[C@@H](CCCCNC(=O)[C@@H](N)CCCCNC(=O)[C@@H](N)CCCCNC(=O)CC[C@H](NC(=O)CCCCCCCNC(=O)CCCCCCCCCOc1ccc(C(=O)O)cc1)C(=O)O)C(=O)O)C(C)C` [Example 26, N^ε26-[(2S)-2-amino-6-[[(2S)-2-amino-6-[[(4S)-4-carboxy-4-[8-[10-(4-carboxyphenoxy)decanoylamino]octanoylamino]butanoyl]amino]hexanoyl]amino]hexanoyl], N^ε37-[(2S)-2-amino-6-[[(2S)-2-amino-6-[[(4S)-4-carboxy-4-[8-[10-(4-carboxyphenoxy)decanoylamino]octanoylamino]butanoyl]amino]hexanoyl]amino]hexanoyl]-[Aib^8,Arg^34,Lys^37]-GLP-1-(7-37)-peptide]: the IC50 amounted to 106 nM on human GLP-1 receptor [2] (setting [6]) and 0.38 nM on human GLP-1 receptor [2] (setting [7]).
